Measured values reported in patent US9695155B2, “Herbicidal substituted pyrimidinyloxy benzene compounds” (E. I. DU PONT DE NEMOURS AND COMPANY, priority 2013, dated 2017).

Columns and labels:
velvetleaf = assay: Test A preemergence; assay type: in vivo, Abutilon theophrasti
Procedure, shortened: (§1)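 Visual 0–100 rating (100 = complete control) taken about 10 d post-treatment relative to untreated checks. Preemergence: directed soil spray on sown loam/sand pots. Postemergence: seedlings 2–10 cm, 1–2 leaf. Non-phytotoxic solvent formulation with surfactant.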

corn [1] = assay: Test C preemergence; assay type: in vivo, Zea mays; conditions: Zea mays, pre-emergence
Procedure, shortened: (§2)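 Preemergence: seeds sown in a loam soil–sand blend and sprayed with test chemical in a non-phytotoxic solvent mixture containing surfactant. Postemergence: plants at 2 to 18 cm (1- to 4-leaf stage) in peat-based medium, treated with the same formulation. Greenhouse 13 to 15 days, then visual rating 0 (no effect) to 100 (complete control).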

pigweed = assay: Test C postemergence; assay type: in vivo, Amaranthus retroflexus
Procedure, shortened: as §2

ragweed = assay: Test C preemergence; assay type: in vivo, Ambrosia elatior; conditions: Ambrosia artemisiifolia, pre-emergence
Procedure, shortened: as §2

waterhemp [2] = assay: Test C preemergence; assay type: in vivo, Amaranthus rudis; conditions: Amaranthus tuberculatus, pre-emergence
Procedure, shortened: as §2

lambsquarters = assay: Test C postemergence; assay type: in vivo, Chenopodium album
Procedure, shortened: as §2

soybean = assay: Test C preemergence; assay type: in vivo, Glycine max; conditions: Glycine max, pre-emergence
Procedure, shortened: as §2

Italian ryegrass = assay: Test C postemergence; assay type: in vivo, Lolium multiflorum
Procedure, shortened: as §2

blackgrass [3] = assay: Test C preemergence; assay type: in vivo, Alopecurus myosuroides; conditions: Alopecurus myosuroides, pre-emergence
Procedure, shortened: as §2

corn [4] = assay: Test C postemergence; assay type: in vivo, Zea mays; conditions: Zea mays, post-emergence, postemergence
Procedure, shortened: as §2

waterhemp [5] = assay: Test C postemergence; assay type: in vivo, Amaranthus rudis
Procedure, shortened: as §2

barnyardgrass [6] = assay: Test C preemergence; assay type: in vivo, Echinochloa crus-galli; conditions: Echinochloa crus-galli, pre-emergence
Procedure, shortened: as §2

giant foxtail = assay: Test A preemergence; assay type: in vivo, Setaria faberii
Procedure, shortened: as §1

barnyardgrass [7] = assay: Test A preemergence; assay type: in vivo, Echinochloa crus-galli
Procedure, shortened: as §1

oilseed rape = assay: Test C preemergence; assay type: in vivo, Brassica napus; conditions: Brassica napus, pre-emergence
Procedure, shortened: as §2

barnyardgrass [8] = assay: Test C postemergence; assay type: in vivo, Echinochloa crus-galli; conditions: Echinochloa crus-galli, post-emergence
Procedure, shortened: as §2

blackgrass [9] = assay: Test C postemergence; assay type: in vivo, Alopecurus myosuroides; conditions: Alopecurus myosuroides, post-emergence
Procedure, shortened: as §2

morningglory = assay: Test C preemergence; assay type: in vivo, Ipomoea coccinea; conditions: Ipomoea, pre-emergence
Procedure, shortened: as §2

[10] = 31 g ai/ha, postemergence, visual rating, scale 0 to 100 (0 no effect, 100 complete control), 13 to 15 days

## FC(F)c1cccc(Oc2ncc(Cl)cn2)c1-n1cc(Br)cn1 [Compound 194, 2-[2-(4-bromo-1H-pyrazol-1-yl)-3-(difluoromethyl)phenoxy]-5-chloropyrimidine]
velvetleaf; 125 g ai/ha
  Velvetleaf plant response rating (0 to 100 scale): 80
velvetleaf; Abutilon theophrasti, pre-emergence, 240 h, 500 g ai/ha, 0 to 100 scale where 0 is no effect and 100 is complete control, read-out: Velvetleaf plant response rating
  pest or weed control at 500 g/ha: 100%
Corn [1]; 125 g ai/ha, preemergence, scale 0 (no effect) to 100 (complete control), read-out: Corn plant response rating
  plant injury at 125 g/ha: 15%
Corn [1]; 250 g ai/ha, preemergence, scale 0 (no effect) to 100 (complete control), read-out: Corn plant response rating
  plant injury at 250 g/ha: 25%
Corn [1]; Preemergence, 62 g ai/ha, scale 0 to 100, 0 no effect, 100 complete control
  Corn plant response rating (crop injury, 0 = no effect, 100 = complete kill) at 62 g/ha: 0%
pigweed; [10]
  Pigweed plant response rating: 75
pigweed; Amaranthus retroflexus, post-emergence, 125 g ai/ha, postemergence, visual rating, scale 0 to 100 (0 no effect, 100 complete control), read-out: Plant response rating, Pigweed
  pest or weed control at 125 g/ha: 90%
pigweed; Amaranthus retroflexus, post-emergence, 250 g ai/ha, postemergence, read-out: Plant response rating (0 to 100), Pigweed
  pest or weed control at 250 g/ha: 95%
pigweed; Amaranthus retroflexus, post-emergence, Postemergence, 62 g ai/ha, scale 0 to 100 (0 no effect, 100 complete control), 13 to 15 days, read-out: Plant response rating, Pigweed
  pest or weed control at 62 g/ha: 75%
ragweed; 125 g ai/ha, preemergence, scale 0 (no effect) to 100 (complete control), read-out: Ragweed plant response rating
  pest or weed control at 125 g/ha: 20%
ragweed; 250 g ai/ha, preemergence, scale 0 (no effect) to 100 (complete control), read-out: Ragweed plant response rating
  pest or weed control at 250 g/ha: 75%
ragweed; Preemergence, 62 g ai/ha, scale 0 to 100, 0 no effect, 100 complete control, read-out: Plant response rating, Ragweed
  pest or weed control at 62 g/ha: 10%
Waterhemp [2]; 125 g ai/ha, preemergence, scale 0 (no effect) to 100 (complete control), read-out: Waterhemp plant response rating
  pest or weed control at 125 g/ha: 100%
Waterhemp [2]; 250 g ai/ha, preemergence, scale 0 (no effect) to 100 (complete control), read-out: Waterhemp plant response rating
  pest or weed control at 250 g/ha: 100%
Waterhemp [2]; Preemergence, 62 g ai/ha, scale 0 to 100, 0 no effect, 100 complete control, read-out: Plant response rating, Waterhemp
  pest or weed control at 62 g/ha: 100%
lambsquarters; [10]
  Lambsquarters plant response rating: 60
lambsquarters; Chenopodium album, post-emergence, 125 g ai/ha, postemergence, visual rating, scale 0 to 100 (0 no effect, 100 complete control), read-out: Plant response rating, Lambsquarters
  pest or weed control at 125 g/ha: 90%
lambsquarters; Chenopodium album, post-emergence, 250 g ai/ha, postemergence, read-out: Plant response rating (0 to 100), Lambsquarters
  pest or weed control at 250 g/ha: 98%
lambsquarters; Chenopodium album, post-emergence, Postemergence, 62 g ai/ha, scale 0 to 100 (0 no effect, 100 complete control), 13 to 15 days, read-out: Plant response rating, Lambsquarters
  pest or weed control at 62 g/ha: 80%
soybean; 125 g ai/ha, preemergence, scale 0 (no effect) to 100 (complete control), read-out: Soybean plant response rating
  plant injury at 125 g/ha: 25%
soybean; 250 g ai/ha, preemergence, scale 0 (no effect) to 100 (complete control), read-out: Soybean plant response rating
  plant injury at 250 g/ha: 45%
soybean; Preemergence, 62 g ai/ha, scale 0 to 100, 0 no effect, 100 complete control, read-out: Plant response rating, Soybean
  plant injury at 62 g/ha: 20%
Italian ryegrass; [10]
  Ryegrass, Italian plant response rating: 0
Italian ryegrass; Lolium multiflorum, post-emergence, 125 g ai/ha, postemergence, visual rating, scale 0 to 100 (0 no effect, 100 complete control), read-out: Plant response rating, Ryegrass, Italian
  pest or weed control at 125 g/ha: 0%
Italian ryegrass; Lolium multiflorum, post-emergence, 250 g ai/ha, postemergence, read-out: Plant response rating (0 to 100), Ryegrass, Italian
  pest or weed control at 250 g/ha: 15%
Italian ryegrass; Lolium multiflorum, post-emergence, Postemergence, 62 g ai/ha, scale 0 to 100 (0 no effect, 100 complete control), 13 to 15 days, read-out: Plant response rating, Ryegrass, Italian
  pest or weed control at 62 g/ha: 0%
Blackgrass [3]; 125 g ai/ha, preemergence, scale 0 (no effect) to 100 (complete control), read-out: Blackgrass plant response rating
  pest or weed control at 125 g/ha: 90%
Blackgrass [3]; 250 g ai/ha, preemergence, scale 0 (no effect) to 100 (complete control), read-out: Blackgrass plant response rating
  pest or weed control at 250 g/ha: 90%
Blackgrass [3]; Preemergence, 62 g ai/ha, scale 0 to 100, 0 no effect, 100 complete control, read-out: Plant response rating, Blackgrass
  pest or weed control at 62 g/ha: 50%
Corn [4]; 31 g ai/ha, visual rating, scale 0 to 100 (0 no effect, 100 complete control), 13 to 15 days, read-out: Corn plant response rating
  plant injury at 31 g/ha: 5%
Corn [4]; 125 g ai/ha, visual rating, scale 0 to 100 (0 no effect, 100 complete control)
  Corn plant response rating (crop injury, 0 = no effect, 100 = complete kill) at 125 g/ha: 25%
Corn [4]; 250 g ai/ha, read-out: Plant response rating (0 to 100), Corn
  plant injury at 250 g/ha: 30%
Waterhemp [5]; [10]
  Waterhemp plant response rating: 80
Waterhemp [5]; Amaranthus tuberculatus, post-emergence, 125 g ai/ha, postemergence, visual rating, scale 0 to 100 (0 no effect, 100 complete control), read-out: Plant response rating, Waterhemp
  pest or weed control at 125 g/ha: 85%
Waterhemp [5]; Amaranthus tuberculatus, post-emergence, 250 g ai/ha, postemergence, read-out: Plant response rating (0 to 100), Waterhemp
  pest or weed control at 250 g/ha: 90%
Waterhemp [5]; Amaranthus tuberculatus, post-emergence, Postemergence, 62 g ai/ha, scale 0 to 100 (0 no effect, 100 complete control), 13 to 15 days, read-out: Plant response rating, Waterhemp
  pest or weed control at 62 g/ha: 80%
Barnyardgrass [6]; 125 g ai/ha, preemergence, scale 0 (no effect) to 100 (complete control), read-out: Barnyardgrass plant response rating
  pest or weed control at 125 g/ha: 100%
Barnyardgrass [6]; 250 g ai/ha, preemergence, scale 0 (no effect) to 100 (complete control), read-out: Barnyardgrass plant response rating
  pest or weed control at 250 g/ha: 100%
Barnyardgrass [6]; Preemergence, 62 g ai/ha, scale 0 to 100, 0 no effect, 100 complete control, read-out: Plant response rating, Barnyardgrass
  pest or weed control at 62 g/ha: 85%
Giant foxtail; 125 g ai/ha
  Foxtail, Giant plant response rating (0 to 100 scale): 100
Giant foxtail; Setaria faberi, pre-emergence, 240 h, 500 g ai/ha, 0 to 100 scale where 0 is no effect and 100 is complete control, read-out: Foxtail, Giant plant response rating
  pest or weed control at 500 g/ha: 100%
Barnyardgrass [7]; 125 g ai/ha
  Barnyardgrass plant response rating (0 to 100 scale, 0 is no effect, 100 is complete control): 80
Barnyardgrass [7]; Echinochloa crus-galli, pre-emergence, 240 h, 500 g ai/ha, 0 to 100 scale where 0 is no effect and 100 is complete control, read-out: Barnyardgrass plant response rating
  pest or weed control at 500 g/ha: 100%
Oilseed rape; 125 g ai/ha, preemergence, scale 0 (no effect) to 100 (complete control), read-out: Oilseed Rape plant response rating
  plant injury at 125 g/ha: 90%
Oilseed rape; 250 g ai/ha, preemergence, scale 0 (no effect) to 100 (complete control), read-out: Oilseed Rape plant response rating
  plant injury at 250 g/ha: 100%
Oilseed rape; Preemergence, 62 g ai/ha, scale 0 to 100, 0 no effect, 100 complete control, read-out: Plant response rating, Oilseed Rape
  plant injury at 62 g/ha: 30%
Barnyardgrass [8]; 31 g ai/ha, postemergence, visual rating, scale 0 to 100 (0 no effect, 100 complete control), 13 to 15 days, read-out: Barnyardgrass plant response rating
  pest or weed control at 31 g/ha: 5%
Barnyardgrass [8]; 125 g ai/ha, postemergence, visual rating, scale 0 to 100 (0 no effect, 100 complete control), read-out: Plant response rating, Barnyardgrass
  pest or weed control at 125 g/ha: 15%
Barnyardgrass [8]; 250 g ai/ha, postemergence, read-out: Plant response rating (0 to 100), Barnyardgrass
  pest or weed control at 250 g/ha: 55%
Barnyardgrass [8]; Postemergence, 62 g ai/ha, scale 0 to 100 (0 no effect, 100 complete control), read-out: Plant response rating, Barnyardgrass
  pest or weed control at 62 g/ha: 5%
Blackgrass [9]; 31 g ai/ha, postemergence, visual rating, scale 0 to 100 (0 no effect, 100 complete control), 13 to 15 days, read-out: Blackgrass plant response rating
  pest or weed control at 31 g/ha: 15%
Blackgrass [9]; 125 g ai/ha, postemergence, visual rating, scale 0 to 100 (0 no effect, 100 complete control), read-out: Plant response rating, Blackgrass
  pest or weed control at 125 g/ha: 30%
Blackgrass [9]; 250 g ai/ha, postemergence, read-out: Plant response rating (0 to 100), Blackgrass
  pest or weed control at 250 g/ha: 35%
Blackgrass [9]; Postemergence, 62 g ai/ha, scale 0 to 100 (0 no effect, 100 complete control), 13 to 15 days, read-out: Plant response rating, Blackgrass
  pest or weed control at 62 g/ha: 20%
morningglory; 125 g ai/ha, preemergence, scale 0 (no effect) to 100 (complete control), read-out: Morningglory plant response rating
  pest or weed control at 125 g/ha: 95%
morningglory; 250 g ai/ha, preemergence, scale 0 (no effect) to 100 (complete control), read-out: Morningglory plant response rating
  pest or weed control at 250 g/ha: 98%
morningglory; Preemergence, 62 g ai/ha, scale 0 to 100, 0 no effect, 100 complete control, read-out: Plant response rating, Morningglory
  pest or weed control at 62 g/ha: 0%
